According to patent publication US9694016B2 (Novartis AG, priority 2013, dated 2017):
pIC50: −log10 of the molar value.

Each molecule was assayed against b-Raf (V600E) (Homo sapiens (Human), UniProt P15056, V600E). Conditions: read-out: b-Raf IC-50; Table 2; AlphaScreen, 3 hours reaction.
Chain of b-Raf (V600E) (P15056 whole entry V600E): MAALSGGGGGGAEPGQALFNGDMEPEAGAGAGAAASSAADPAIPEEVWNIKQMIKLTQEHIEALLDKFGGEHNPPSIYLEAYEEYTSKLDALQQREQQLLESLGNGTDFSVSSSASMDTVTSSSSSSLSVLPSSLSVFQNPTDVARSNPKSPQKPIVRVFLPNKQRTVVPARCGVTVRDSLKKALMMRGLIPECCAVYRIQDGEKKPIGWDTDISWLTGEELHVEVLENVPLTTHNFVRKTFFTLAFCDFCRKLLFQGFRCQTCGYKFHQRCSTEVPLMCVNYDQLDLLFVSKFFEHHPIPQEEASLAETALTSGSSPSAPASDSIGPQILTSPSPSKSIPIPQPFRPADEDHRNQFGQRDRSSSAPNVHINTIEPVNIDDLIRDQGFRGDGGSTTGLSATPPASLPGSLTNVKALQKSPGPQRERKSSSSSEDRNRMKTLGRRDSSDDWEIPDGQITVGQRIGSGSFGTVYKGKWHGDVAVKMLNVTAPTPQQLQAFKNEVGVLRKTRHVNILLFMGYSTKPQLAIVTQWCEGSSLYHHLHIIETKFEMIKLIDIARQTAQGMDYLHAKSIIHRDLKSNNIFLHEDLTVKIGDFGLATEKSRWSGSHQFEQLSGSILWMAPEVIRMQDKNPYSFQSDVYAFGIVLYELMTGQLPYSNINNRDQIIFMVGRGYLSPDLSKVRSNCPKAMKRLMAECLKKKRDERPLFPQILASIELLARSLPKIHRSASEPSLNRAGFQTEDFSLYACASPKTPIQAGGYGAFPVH

| SMILES | pIC50 |
| --- | --- |
| Cc1nc(C(=O)Nc2cnc(C)c(-c3cc(N4CCOCC4)c(=O)n(C)c3)c2)c(C)o1 [Example 383, N-(1′,2-dimethyl-5′-morpholino-6′-oxo-1′,6′-dihydro-[3,3′-bipyridin]-5-yl)-2,5-dimethyloxazole-4-carboxamide] | 5.55 |
| Cc1ncc(NC(=O)c2cccc(C(C)(C)C#N)c2)cc1-c1cc(N2CCOCC2)c(=O)n(C)c1 [Example 389, 3-(2-cyanopropan-2-yl)-N-(1′,2-dimethyl-5′-morpholino-6′-oxo-1′,6′-dihydro-[3,3′-bipyridin]-5-yl)benzamide] | 7.19 |
| Cc1ncc(NC(=O)c2ccnc(C(F)(F)F)c2)cc1-c1cc(N2CCOCC2)c(=O)n(C)c1 [Example 390, N-(1′,2-dimethyl-5′-morpholino-6′-oxo-1′,6′-dihydro-[3,3′-bipyridin]-5-yl)-2-(trifluoromethyl)isonicotinamide] | 8.27 |
| Cc1ncc(NC(=O)c2ccnc(C(C)(F)F)c2)cc1-c1cc(N2CCOCC2)c(=O)n(C)c1 [Example 391, 2-(1,1-difluoroethyl)-N-(1′,2-dimethyl-5′-morpholino-6′-oxo-1′,6′-dihydro-[3,3′-bipyridin]-5-yl)isonicotinamide] | 7.91 |
| Cc1ncc(NC(=O)c2ccnc(C(F)F)c2)cc1-c1cc(N2CCOCC2)c(=O)n(C)c1 [Example 392, 2-(difluoromethyl)-N-(1′,2-dimethyl-5′-morpholino-6′-oxo-1′,6′-dihydro-[3,3′-bipyridin]-5-yl)isonicotinamide] | 7.82 |
| Cc1ncc(NC(=O)c2cccc(C(C)(F)F)c2)cc1-c1cc(N2CCOCC2)c(=O)n(C)c1 [Example 393, 3-(1,1-difluoroethyl)-N-(1′,2-dimethyl-5′-morpholino-6′-oxo-1′,6′-dihydro-[3,3′-bipyridin]-5-yl)benzamide] | 8.34 |
| Cc1ncc(NC(=O)c2cccc(C(F)F)c2)cc1-c1cc(N2CCOCC2)c(=O)n(C)c1 [Example 394, 3-(difluoromethyl)-N-(1′,2-dimethyl-5′-morpholino-6′-oxo-1′,6′-dihydro-[3,3′-bipyridin]-5-yl)benzamide] | 8.44 |
| CCOc1cc(C(=O)Nc2cnc(C)c(-c3cc(N4CCOCC4)c(=O)n(C)c3)c2)ccc1F [Example 395, N-(1′,2-dimethyl-5′-morpholino-6′-oxo-1′,6′-dihydro-[3,3′-bipyridin]-5-yl)-3-ethoxy-4-fluorobenzamide] | 8.01 |
| Cc1ncc(NC(=O)c2ccc(F)c(OC(C)C)c2)cc1-c1cc(N2CCOCC2)c(=O)n(C)c1 [Example 396, N-(1′,2-dimethyl-5′-morpholino-6′-oxo-1′,6′-dihydro-[3,3′-bipyridin]-5-yl)-4-fluoro-3-isopropoxybenzamide] | 7.97 |
| CCOc1cccc(C(=O)Nc2cnc(C)c(-c3cc(N4CCOCC4)c(=O)n(C)c3)c2)c1 [Example 397, N-(1′,2-dimethyl-5′-morpholino-6′-oxo-1′,6′-dihydro-[3,3′-bipyridin]-5-yl)-3-ethoxybenzamide] | 8.00 |
| Cc1ncc(NC(=O)c2cccc(OC(C)C)c2)cc1-c1cc(N2CCOCC2)c(=O)n(C)c1 [Example 398, N-(1′,2-dimethyl-5′-morpholino-6′-oxo-1′,6′-dihydro-[3,3′-bipyridin]-5-yl)-3-isopropoxybenzamide] | 8.08 |
| Cc1ncc(NC(=O)c2ccnc(C(C)(C)C)c2)cc1-c1cc(N2CCOCC2)c(=O)n(C)c1 [Example 399, 2-(tert-butyl)-N-(1′,2-dimethyl-5′-morpholino-6′-oxo-1′,6′-dihydro-[3,3′-bipyridin]-5-yl)isonicotinamide] | 7.37 |
| Cc1ncc(NC(=O)c2ccnc(C(C)C)c2)cc1-c1cc(N2CCOCC2)c(=O)n(C)c1 [Example 400, N-(1′,2-dimethyl-5′-morpholino-6′-oxo-1′,6′-dihydro-[3,3′-bipyridin]-5-yl)-2-isopropylisonicotinamide] | 7.45 |
| CCN1CCN(c2cc(C(=O)Nc3cnc(C)c(-c4cc(N5CCOCC5)c(=O)n(C)c4)c3)cc(C(F)(F)F)c2)CC1 [Example 402, N-(1′,2-dimethyl-5′-morpholino-6′-oxo-1′,6′-dihydro-[3,3′-bipyridin]-5-yl)-3-(4-ethylpiperazin-1-yl)-5-(trifluoromethyl)benzamide] | 7.00 |
| Cc1ncc(NC(=O)c2cccc(C3(C#N)CC3)c2Cl)cc1-c1cc(N2CCOCC2)c(=O)n(C)c1 [Example 403, 2-chloro-3-(1-cyanocyclopropyl)-N-(1′,2-dimethyl-5′-morpholino-6′-oxo-1′,6′-dihydro-[3,3′-bipyridin]-5-yl)benzamide] | 7.21 |
| Cn1cc(-c2cc(NC(=O)c3ccnc(C(F)(F)F)c3)cnc2Cl)cc(N2CCOCC2)c1=O [Example 404, N-(2-chloro-1′-methyl-5′-morpholino-6′-oxo-1′,6′-dihydro-[3,3′-bipyridin]-5-yl)-2-(trifluoromethyl)isonicotinamide] | 8.37 |
| Cn1cc(-c2cc(NC(=O)c3ccnc(C(C)(F)F)c3)cnc2Cl)cc(N2CCOCC2)c1=O [Example 405, N-(2-chloro-1′-methyl-5′-morpholino-6′-oxo-1′,6′-dihydro-[3,3-bipyridin]-5-yl)-2-(1,1-difluoroethyl)isonicotinamide] | 8.35 |
| COc1ccc(C(=O)Nc2cnc(Cl)c(-c3cc(N4CCOCC4)c(=O)n(C)c3)c2)cc1C(F)(F)F [Example 408, N-(2-chloro-1′-methyl-5′-morpholino-6′-oxo-1′,6′-dihydro-[3,3-bipyridin]-5-yl)-4-methoxy-3-(trifluoromethyl)benzamide] | 8.17 |
| Cn1cc(-c2cc(NC(=O)c3cccc(C(F)(F)F)c3)ccc2C#N)cc(N2CCOCC2)c1=O [Example 411, N-(4-cyano-3-(1-methyl-5-morpholino-6-oxo-1,6-dihydropyridin-3-yl)phenyl)-3-(trifluoromethyl)benzamide] | 5.51 |
| Cn1cc(-c2cc(NC(=O)c3ccnc(C(F)(F)F)c3)ccc2C#N)cc(N2CCOCC2)c1=O [Example 415, N-(4-cyano-3-(1-methyl-5-morpholino-6-oxo-1,6-dihydropyridin-3-yl)phenyl)-2-(trifluoromethyl)isonicotinamide] | 5.00 |
| Cn1cc(-c2cc(NC(=O)c3ccnc(C(C)(F)F)c3)ccc2F)cc(N2CCOCC2)c1=O [Example 419] | 8.37 |
| Cn1cc(-c2cc(NC(=O)c3cccc(C(F)F)c3)ccc2C#N)cc(N2CCOCC2)c1=O [Example 420, N-(4-cyano-3-(1-methyl-5-morpholino-6-oxo-1,6-dihydropyridin-3-yl)phenyl)-3-(difluoromethyl)benzamide] | 5.44 |
| Cn1cc(-c2cc(C(=O)Nc3cccc(C(F)(F)F)c3)cnc2Cl)cc(N2CCOCC2)c1=O [Example 423, 2-chloro-1′-methyl-5′-morpholino-6′-oxo-N-(3-(trifluoromethyl)phenyl)-1′,6′-dihydro-[3,3′-bipyridine]-5-carboxamide] | 8.22 |
| Cn1cc(-c2cc(C(=O)Nc3cccc(C(C)(C)O)c3)cnc2Cl)cc(N2CCOCC2)c1=O [Example 424, 2-chloro-N-(3-(2-hydroxypropan-2-yl)phenyl)-t-methyl-5′-morpholino-6′-oxo-1′,6′-dihydro-[3,3′-bipyridine]-5-carboxamide] | 7.30 |

The next lines start with the values.

| pIC50 | SMILES |
| --- | --- |
| 8.85 | Cn1cc(-c2cc(NC(=O)c3cccc(C(F)(F)F)c3)cnc2Cl)cc(N2CCOCC2)c1=O [Example 407, N-(2-chloro-1′-methyl-5′-morpholino-6′-oxo-1′,6′-dihydro-[3,3-bipyridin]-5-yl)-3-(trifluoromethyl)benzamide] |
| 8.77 | Cn1cc(-c2cc(NC(=O)c3cccc(C(F)(F)F)c3)ccc2Cl)cc(N2CCOCC2)c1=O [Example 409, N-(4-chloro-3-(1-methyl-5-morpholino-6-oxo-1,6-dihydropyridin-3-yl)phenyl)-3-(trifluoromethyl)benzamide] |
| 8.70 | Cn1cc(-c2cc(NC(=O)c3cccc(C(F)(F)F)c3)ccc2F)cc(N2CCOCC2)c1=O [Example 410] |
| 9.10 | Cn1cc(-c2cc(NC(=O)c3cccc(C(F)F)c3)ccc2Cl)cc(N2CCOCC2)c1=O [Example 412, N-(4-chloro-3-(1-methyl-5-morpholino-6-oxo-1,6-dihydropyridin-3-yl)phenyl)-3-(difluoromethyl)benzamide] |
| 9.40 | Cn1cc(-c2cc(NC(=O)c3ccnc(C(F)(F)F)c3)ccc2Cl)cc(N2CCOCC2)c1=O [Example 413, N-(4-chloro-3-(1-methyl-5-morpholino-6-oxo-1,6-dihydropyridin-3-yl)phenyl)-2-(trifluoromethyl)isonicotinamide] |
| 8.85 | Cn1cc(-c2cc(NC(=O)c3ccnc(C(C)(F)F)c3)ccc2Cl)cc(N2CCOCC2)c1=O [Example 414, N-(4-chloro-3-(1-methyl-5-morpholino-6-oxo-1,6-dihydropyridin-3-yl)phenyl)-2-(1,1-difluoroethyl)isonicotinamide] |
| 8.51 | Cn1cc(-c2cc(NC(=O)c3cccc(C(F)F)c3)ccc2F)cc(N2CCOCC2)c1=O [Example 417, 3-(difluoromethyl)-N-(4-fluoro-3-(1-methyl-5-morpholino-6-oxo-1,6-dihydropyridin-3-yl)phenyl)benzamide] |
| 8.46 | Cn1cc(-c2cc(NC(=O)c3ccnc(C(F)(F)F)c3)ccc2F)cc(N2CCOCC2)c1=O [Example 418] |
| 9.00 | CC(C)c1cc(C(=O)Nc2ccc(Cl)c(-c3cc(N4CCOCC4)c(=O)n(C)c3)c2)ccn1 [Example 421, N-(4-chloro-3-(1-methyl-5-morpholino-6-oxo-1,6-dihydropyridin-3-yl)phenyl)-2-isopropylisonicotinamide] |
| 8.59 | Cn1cc(-c2cc(C(=O)Nc3cccc(C(F)(F)F)c3)ccc2Cl)cc(N2CCOCC2)c1=O [Example 425, 4-chloro-3-(1-methyl-5-morpholino-6-oxo-1,6-dihydropyridin-3-yl)-N-(3-(trifluoromethyl)phenyl)benzamide] |
| 8.62 | Cn1cc(-c2cc(C(=O)Nc3cccc(C(F)F)c3)ccc2Cl)cc(N2CCOCC2)c1=O [Example 426, 4-chloro-N-(3-(difluoromethyl)phenyl)-3-(1-methyl-5-morpholino-6-oxo-1,6-dihydropyridin-3-yl)benzamide] |
